Data published in patent US20230085307A1, “PYRIDAZINONE COMPOUND AND HERBICIDE” (NISSAN CHEMICAL CORPORATION, priority 2019, published 2023).

Columns and labels:
southern crabgrass [1] = assay: Test Example 5: herbicidal effect by foliage application, plastic box (Table 20, symbol F); format: in vivo, southern crabgrass (Digitaria ciliaris); conditions: foliage application, 320 g/ha, evaluated three weeks after application
In short: (§1)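 Sow seeds spot-wise in sterilized diluvial soil; cover with ~1.5 cm soil. Grow 14 days in greenhouse, 25° C. to 30° C. Spray foliage with emulsion diluted to predetermined amount. Rate effect after 3 weeks.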

redroot pigweed [2] = assay: Test Example 4: herbicidal effect by soil treatment (Table 19, symbol N); format: in vivo, redroot pigweed (Amaranthus retroflexus); conditions: amount of applied herbicide 320 g/ha
In short: (§2)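 Soil-surface application: an emulsion agent diluted with water to the predetermined dose is sprayed uniformly over seeds lying under roughly 1.5 cm of sterilized diluvial soil. Boxes stay in a greenhouse at 25° C. to 30° C. Three weeks later, each species is graded on previously defined criteria.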

persian speedwell [3] = assay: Test Example 5: herbicidal effect by foliage application, plastic box (Table 20, symbol R); format: in vivo, Persian speedwell (Veronica persica); conditions: foliage application, 320 g/ha, evaluated three weeks after application
In short: as §1

Japanese bulrush = assay: Test Example 1: herbicidal activity, application before weed generation under submerged conditions (Table 16, symbol B); format: in vivo, Japanese bulrush (Schoenoplectus juncoides); conditions: 320 g/ha applied herbicide
In short: (§3)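 Alluvial soil was flooded to 4 cm depth, weed seeds were sown mixed and 2.5-leaf rice seedlings were transplanted. On sowing day, the compound's emulsion, diluted in water to a set dose, was applied to the water surface. Plants grew at 25–30 °C and were scored 0–5 after three weeks.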

Italian ryegrass [4] = assay: Test Example 5: herbicidal effect by foliage application, plastic box (Table 20, symbol K); format: in vivo, Italian ryegrass (Lolium multiflorum); conditions: foliage application, 320 g/ha, evaluated three weeks after application
In short: as §1

velvetleaf [5] = assay: Test Example 5: herbicidal effect by foliage application, plastic box (Table 20, symbol M); format: in vivo, velvetleaf (Abutilon theophrasti); conditions: foliage application, 320 g/ha, evaluated three weeks after application
In short: as §1

lambsquarters [6] = assay: Test Example 4: herbicidal effect by soil treatment (Table 19, symbol O); format: in vivo, lambsquarters (Chenopodium album); conditions: amount of applied herbicide 320 g/ha
In short: as §2

Chinese sprangletop = assay: Test Example 3: herbicidal effect by foliage application, Wagner pot (Table 18, symbol D); format: in vivo, chinese sprangletop (Leptochloa chinensis); conditions: amount of applied herbicide 320 g/ha
In short: (§4)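 Plants were sown in alluvial soil held under 0.1–0.5 cm standing water and grown 14 days in a greenhouse at 25–30 °C. An emulsifiable formulation, water-diluted to the set dose, was then sprayed onto the foliage, and effects were scored three weeks later using previously defined criteria.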

windgrass [7] = assay: Test Example 4: herbicidal effect by soil treatment (Table 19, symbol L); format: in vivo, windgrass (Apera spica-venti); conditions: amount of applied herbicide 320 g/ha
In short: as §2

oval-leafed pondweed = assay: Test Example 1: herbicidal activity, application before weed generation under submerged conditions (Table 16, symbol C); format: in vivo, oval-leafed pondweed (Monochoria vaginalis); conditions: 320 g/ha applied herbicide
In short: as §3

barnyard grass [8] = assay: Test Example 5: herbicidal effect by foliage application, plastic box (Table 20, symbol H); format: in vivo, barnyard grass (Echinochloa crus-galli); conditions: foliage application, 320 g/ha, evaluated three weeks after application
In short: as §1

barnyard grass [9] = assay: Test Example 4: herbicidal effect by soil treatment (Table 19, symbol H); format: in vivo, barnyard grass (Echinochloa crus-galli); conditions: amount of applied herbicide 320 g/ha
In short: as §2

blackgrass [10] = assay: Test Example 5: herbicidal effect by foliage application, plastic box (Table 20, symbol J); format: in vivo, blackgrass (Alopecurus myosuroides); conditions: foliage application, 320 g/ha, evaluated three weeks after application
In short: as §1

redroot pigweed [11] = assay: Test Example 5: herbicidal effect by foliage application, plastic box (Table 20, symbol N); format: in vivo, redroot pigweed (Amaranthus retroflexus); conditions: foliage application, 320 g/ha, evaluated three weeks after application
In short: as §1

velvetleaf [12] = assay: Test Example 4: herbicidal effect by soil treatment (Table 19, symbol M); format: in vivo, velvetleaf (Abutilon theophrasti); conditions: amount of applied herbicide 320 g/ha
In short: as §2

chickweed [13] = assay: Test Example 4: herbicidal effect by soil treatment (Table 19, symbol P); format: in vivo, common chickweed (Stellaria media); conditions: amount of applied herbicide 320 g/ha
In short: as §2

late watergrass = assay: Test Example 1: herbicidal activity, application before weed generation under submerged conditions (Table 16, symbol A); format: in vivo, late watergrass (Echinochloa oryzicola); conditions: 320 g/ha applied herbicide
In short: as §3

lambsquarters [14] = assay: Test Example 5: herbicidal effect by foliage application, plastic box (Table 20, symbol O); format: in vivo, lambsquarters (Chenopodium album); conditions: foliage application, 320 g/ha, evaluated three weeks after application
In short: as §1

wild oat [15] = assay: Test Example 4: herbicidal effect by soil treatment (Table 19, symbol I); format: in vivo, wild oat (Avena fatua); conditions: amount of applied herbicide 320 g/ha
In short: as §2

wild oat [16] = assay: Test Example 5: herbicidal effect by foliage application, plastic box (Table 20, symbol I); format: in vivo, wild oat (Avena fatua); conditions: foliage application, 320 g/ha, evaluated three weeks after application
In short: as §1

Italian ryegrass [17] = assay: Test Example 4: herbicidal effect by soil treatment (Table 19, symbol K); format: in vivo, Italian ryegrass (Lolium multiflorum); conditions: amount of applied herbicide 320 g/ha
In short: as §2

chickweed [18] = assay: Test Example 5: herbicidal effect by foliage application, plastic box (Table 20, symbol P); format: in vivo, common chickweed (Stellaria media); conditions: foliage application, 320 g/ha, evaluated three weeks after application
In short: as §1

rice flat sedge = assay: Test Example 3: herbicidal effect by foliage application, Wagner pot (Table 18, symbol E); format: in vivo, rice flat sedge (Cyperus iria); conditions: amount of applied herbicide 320 g/ha
In short: as §4

green foxtail [19] = assay: Test Example 5: herbicidal effect by foliage application, plastic box (Table 20, symbol G); format: in vivo, green foxtail (Setaria viridis); conditions: foliage application, 320 g/ha, evaluated three weeks after application
In short: as §1

southern crabgrass [20] = assay: Test Example 4: herbicidal effect by soil treatment (Table 19, symbol F); format: in vivo, southern crabgrass (Digitaria ciliaris); conditions: amount of applied herbicide 320 g/ha
In short: as §2

persian speedwell [21] = assay: Test Example 4: herbicidal effect by soil treatment (Table 19, symbol R); format: in vivo, Persian speedwell (Veronica persica); conditions: amount of applied herbicide 320 g/ha
In short: as §2

barnyard grass [22] = assay: Test Example 3: herbicidal effect by foliage application, Wagner pot (Table 18, symbol H); format: in vivo, barnyard grass (Echinochloa crus-galli); conditions: amount of applied herbicide 320 g/ha
In short: as §4

blackgrass [23] = assay: Test Example 4: herbicidal effect by soil treatment (Table 19, symbol J); format: in vivo, blackgrass (Alopecurus myosuroides); conditions: amount of applied herbicide 320 g/ha
In short: as §2

windgrass [24] = assay: Test Example 5: herbicidal effect by foliage application, plastic box (Table 20, symbol L); format: in vivo, windgrass (Apera spica-venti); conditions: foliage application, 320 g/ha, evaluated three weeks after application
In short: as §1

green foxtail [25] = assay: Test Example 4: herbicidal effect by soil treatment (Table 19, symbol G); format: in vivo, green foxtail (Setaria viridis); conditions: amount of applied herbicide 320 g/ha
In short: as §2

Structure (SMILES)	herbicidal effect on F: southern crabgrass (criteria 0-5) (southern crabgrass [1])	N: redroot pigweed, herbicidal effect rating (redroot pigweed [2])	herbicidal effect on R: persian speedwell (criteria 0-5) (persian speedwell [3])	Herbicidal effect on B: Japanese bulrush (grade 0-5) (Japanese bulrush)	herbicidal effect on K: Italian ryegrass (criteria 0-5) (Italian ryegrass [4])	herbicidal effect on M: velvetleaf (criteria 0-5) (velvetleaf [5])	O: lambsquarters, herbicidal effect rating (lambsquarters [6])	herbicidal effect on D: Chinese sprangletop (Chinese sprangletop)	L: windgrass, herbicidal effect rating (windgrass [7])	Herbicidal effect on C: oval-leafed pondweed (grade 0-5) (oval-leafed pondweed)	herbicidal effect on H: barnyard grass (criteria 0-5) (barnyard grass [8])	H: barnyard grass, herbicidal effect rating (barnyard grass [9])	herbicidal effect on J: blackgrass (criteria 0-5) (blackgrass [10])	herbicidal effect on N: redroot pigweed (criteria 0-5) (redroot pigweed [11])	M: velvetleaf, herbicidal effect rating (velvetleaf [12])	P: chickweed, herbicidal effect rating (chickweed [13])	Herbicidal effect on A: late watergrass (grade 0-5) (late watergrass)	herbicidal effect on O: lambsquarters (criteria 0-5) (lambsquarters [14])	I: wild oat, herbicidal effect rating (wild oat [15])	herbicidal effect on I: wild oat (criteria 0-5) (wild oat [16])	other results
CCCC(=O)Oc1c(C)nn(C)c(=O)c1-c1c(-c2ccccc2F)sc2ccc(F)cc12 [2-200]	2 (Herbicidal rate of 20% or more and less than 40%)	4 (Herbicidal rate of 70% or more and less than 90%)	4 (Herbicidal rate of 70% or more and less than 90%)	0 (Herbicidal rate of 5% or less (almost no effect))	4 (Herbicidal rate of 70% or more and less than 90%)	5 (Herbicidal rate of 90% or more (almost completely withered))	4 (Herbicidal rate of 70% or more and less than 90%)	5 (Herbicidal rate of 90% or more (almost completely withered))	0 (Herbicidal rate of 5% or less (almost no effect))	0 (Herbicidal rate of 5% or less (almost no effect))	3 (Herbicidal rate of 40% or more and less than 70%)	3 (Herbicidal rate of 40% or more and less than 70%)	1 (Herbicidal rate of 5% or more and less than 20%)	5 (Herbicidal rate of 90% or more (almost completely withered))	0 (Herbicidal rate of 5% or less (almost no effect))	1 (Herbicidal rate of 5% or more and less than 20%)	3 (Herbicidal rate of 40% or more and less than 70%)	3 (Herbicidal rate of 40% or more and less than 70%)	0 (Herbicidal rate of 5% or less (almost no effect))	0 (Herbicidal rate of 5% or less (almost no effect))	K: Italian ryegrass, herbicidal effect rating (Italian ryegrass [17]): 3 (Herbicidal rate of 40% or more and less than 70%); herbicidal effect on P: chickweed (criteria 0-5) (chickweed [18]): 5 (Herbicidal rate of 90% or more (almost completely withered)); herbicidal effect on E: rice flat sedge (rice flat sedge): 5 (Herbicidal rate of 90% or more (almost completely withered)); herbicidal effect on G: green foxtail (criteria 0-5) (green foxtail [19]): 4 (Herbicidal rate of 70% or more and less than 90%); F: southern crabgrass, herbicidal effect rating (southern crabgrass [20]): 1 (Herbicidal rate of 5% or more and less than 20%); R: persian speedwell, herbicidal effect rating (persian speedwell [21]): 3 (Herbicidal rate of 40% or more and less than 70%); herbicidal effect on H: barnyard grass (barnyard grass [22]): 4 (Herbicidal rate of 70% or more and less than 90%); J: blackgrass, herbicidal effect rating (blackgrass [23]): 0 (Herbicidal rate of 5% or less (almost no effect)); herbicidal effect on L: windgrass (criteria 0-5) (windgrass [24]): 3 (Herbicidal rate of 40% or more and less than 70%); G: green foxtail, herbicidal effect rating (green foxtail [25]): 1 (Herbicidal rate of 5% or more and less than 20%)
CCCC(=O)Oc1c(C)nn(C)c(=O)c1-c1c(-c2cccc(OC)c2)sc2ccc(F)cc12 [2-210]	5 (Herbicidal rate of 90% or more (almost completely withered))	5 (Herbicidal rate of 90% or more (almost completely withered))	5 (Herbicidal rate of 90% or more (almost completely withered))	0 (Herbicidal rate of 5% or less (almost no effect))	4 (Herbicidal rate of 70% or more and less than 90%)	5 (Herbicidal rate of 90% or more (almost completely withered))	1 (Herbicidal rate of 5% or more and less than 20%)	5 (Herbicidal rate of 90% or more (almost completely withered))	0 (Herbicidal rate of 5% or less (almost no effect))	0 (Herbicidal rate of 5% or less (almost no effect))	4 (Herbicidal rate of 70% or more and less than 90%)	4 (Herbicidal rate of 70% or more and less than 90%)	3 (Herbicidal rate of 40% or more and less than 70%)	5 (Herbicidal rate of 90% or more (almost completely withered))	2 (Herbicidal rate of 20% or more and less than 40%)	4 (Herbicidal rate of 70% or more and less than 90%)	3 (Herbicidal rate of 40% or more and less than 70%)	4 (Herbicidal rate of 70% or more and less than 90%)	0 (Herbicidal rate of 5% or less (almost no effect))	0 (Herbicidal rate of 5% or less (almost no effect))	K: Italian ryegrass, herbicidal effect rating (Italian ryegrass [17]): 4 (Herbicidal rate of 70% or more and less than 90%); herbicidal effect on P: chickweed (criteria 0-5) (chickweed [18]): 5 (Herbicidal rate of 90% or more (almost completely withered)); herbicidal effect on E: rice flat sedge (rice flat sedge): 5 (Herbicidal rate of 90% or more (almost completely withered)); herbicidal effect on G: green foxtail (criteria 0-5) (green foxtail [19]): 5 (Herbicidal rate of 90% or more (almost completely withered)); F: southern crabgrass, herbicidal effect rating (southern crabgrass [20]): 4 (Herbicidal rate of 70% or more and less than 90%); R: persian speedwell, herbicidal effect rating (persian speedwell [21]): 5 (Herbicidal rate of 90% or more (almost completely withered)); herbicidal effect on H: barnyard grass (barnyard grass [22]): 5 (Herbicidal rate of 90% or more (almost completely withered)); J: blackgrass, herbicidal effect rating (blackgrass [23]): 1 (Herbicidal rate of 5% or more and less than 20%); herbicidal effect on L: windgrass (criteria 0-5) (windgrass [24]): 5 (Herbicidal rate of 90% or more (almost completely withered)); G: green foxtail, herbicidal effect rating (green foxtail [25]): 4 (Herbicidal rate of 70% or more and less than 90%)
